Experiments:
Format in all cases: functional
Settings in all cases: read-out: ED50 (the source's name)
XF498 = experiment: Cytotoxicity against human XF498 cells
HCT-15 = experiment: Cytotoxicity against human HCT15 cells
SK-OV-3 = experiment: Cytotoxicity against human SKOV3 cells
SK-MEL-2 = experiment: Cytotoxicity against human SK-MEL-2 cells
A549 = experiment: Cytotoxicity against human A549 cells

Measured: EC50

C=CCCCCCCCc1cc(OC)cc[n+]1CC(=O)[O-] [MONTIPYRIDINE]
> 30 µg/mL: XF498 | HCT-15 | SK-OV-3 | SK-MEL-2 | A549
